Where “and” joins values, the source holds several entries; their conditions need not be identical. Identical values can stand only once.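 48-hour exposure; five concentrations; linearly interpolated endpoints. GI50 is the concentration that inhibits growth by half. TGI denotes the concentration required for complete inhibition of growth.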
Tests used:
Assay in all cases: NCI-60 cell line screen, 48 h
SF-539 CNS = tested on: SF-539 CNS
U251 CNS = tested on: U251 CNS
DU-145 prostate = tested on: DU-145 prostate
SK-MEL-2 melanoma = tested on: SK-MEL-2 melanoma
SF-295 CNS = tested on: SF-295 CNS
IGROV1 ovarian = tested on: IGROV1 ovarian
HS 578T breast = tested on: HS 578T breast
HOP-62 NSCLC = tested on: HOP-62 NSCLC
OVCAR-8 ovarian = tested on: OVCAR-8 ovarian
SNB-75 CNS = tested on: SNB-75 CNS

Row | SMILES | TGI (SF-539 CNS) | TGI (U251 CNS) | TGI (DU-145 prostate) [µM] | TGI (SK-MEL-2 melanoma) | TGI (SF-295 CNS) [µM] | TGI (IGROV1 ovarian) | TGI (HS 578T breast) | TGI (HOP-62 NSCLC) [µM] | TGI (OVCAR-8 ovarian) [µM] | TGI (SNB-75 CNS) [µM] | GI50 (SF-539 CNS) | GI50 (U251 CNS) | GI50 (DU-145 prostate) | GI50 (SK-MEL-2 melanoma) | GI50 (SNB-75 CNS) [µM] | GI50 (IGROV1 ovarian) | GI50 (HS 578T breast) [µM] | GI50 (HOP-62 NSCLC) [µM] | GI50 (OVCAR-8 ovarian) | GI50 (SF-295 CNS)
1 | CN(C)CCNCCN | > 100 µM | > 100 µM | > 100 | > 100 µM | > 100 | > 100 µM | > 100 µM | > 100 | > 100 | – | – | – | – | – | – | – | – | – | – | –
2 | CC1CC(O)C(=O)C(O[C@@H]2C[C@@H]3CC[C@@H]4[C@H](CC[C@]5(C)C(C6=CC(=O)OC6)CC[C@]45O)[C@@]3(C=O)C[C@H]2O)O1 (stereo partly drawn) | 0.0586 µM | < 0.0486 µM | 0.0237 | – | 0.149 | – | 0.214 µM | 0.0492 | 0.163 | 0.18 | – | – | – | – | – | – | – | – | – | –
3 | C=CC(=O)N1CN(C(=O)C=C)CN(C(=O)C=C)C1 | 48.3 µM | 16.5 µM | 29 | 47.4 µM | – | 11.3 µM | > 100 µM | 48.1 | > 100 | > 100 | 2.98 µM | 4.34 µM | 10.7 µM | 5.46 µM | 8.9 | 3.34 µM | > 100 | 12.3 | 2.93 µM | –
4 | COC(=O)C1=COC(C)C2CN3CCc4c([nH]c5ccccc45)C3CC12 (stereo not drawn) | 59.5 µM and > 100 µM | 81.4 µM and > 100 µM | > 100 | 92.1 µM and > 100 µM | > 100 | 80.2 µM and > 100 µM | 65.8 µM and > 100 µM | > 100 | > 100 | – | 22.4 µM and > 100 µM | 24.6 µM and > 100 µM | 33.7 µM and > 100 µM | 20 µM and > 100 µM | – | 22.1 µM and > 100 µM | – | – | 18.6 µM and > 100 µM | 30.6 µM and 72.9 µM
5 | CC(C)(C)c1ccc2c(c1)S(=O)(=O)Nc1ccc(Cl)cc1NS(=O)(=O)c1cc(C(C)(C)C)ccc1OCCOCCOCCO2 | > 100 µM | > 100 µM | – | > 100 µM | > 100 | > 100 µM | – | > 100 | > 100 | 59 | – | – | – | – | – | – | – | – | – | –
6 | Cc1ccc(OCCOCCOCCOCCOc2ccc(C)n(O)c2=S)c(=S)n1O | > 100 µM | > 100 µM | > 100 | > 100 µM | > 100 | 54.3 µM | > 100 µM | > 100 | > 100 | > 100 | 0.317 µM | 0.0632 µM | 0.184 µM | 4.86 µM | 3.49 | < 0.01 µM | 3.58 | 0.184 | < 0.0137 µM | 0.0261 µM
7 | Cn1cc(-c2csc(-c3cn(CCCCN4CCCCC4)c4ccccc34)n2)c2cccnc21 | – | – | 3.2 | – | 3.06 | – | 4.16 µM | 3.19 | – | 2.99 | – | – | 1.75 µM | – | 1.51 | – | 1.67 | 1.6 | – | 1.64 µM
8 | CC(C)c1[nH]nc2c1N=C(c1ccccc1Cl)c1cc([N+](=O)[O-])ccc1N2 | > 22 µM | > 25 µM | > 23.6 | 13.4 µM | > 25 | 24.4 µM | > 20.7 µM | > 25 | > 25 | > 17.6 | 7.27 µM | 6.16 µM | 7.87 µM | 5.49 µM | 1.31 | 9.46 µM | 3.16 | 6.58 | 9.1 µM | 8.52 µM
9 | O=C(Nc1cc(Cl)ccc1O)c1ccc(Nc2ccnc(C(F)(F)F)c2)cc1 | > 100 µM | > 100 µM | > 100 | – | 7.03 | 8.19 µM | > 100 µM | 23.7 | > 100 | – | 3.29 µM | 3.47 µM | 3.25 µM | – | – | 2.34 µM | 3.75 | 3.23 | 4.54 µM | 2.2 µM
10 | O=C(Nc1cc(Nc2ncccc2-c2ncnc3nc[nH]c23)ccc1F)c1cc(C(F)(F)F)cc(C(F)(F)F)c1 | 3.04 µM | > 10 µM | > 10 | 2.41 µM | 4.01 | 7.2 µM | 8.88 µM | > 10 | > 10 | 7.15 | 1.3 µM | 2.88 µM | 4.16 µM | 0.355 µM | 1.9 | 1.63 µM | 1.8 | 1.15 | 3.67 µM | 1.73 µM
11 | CCC/C=C/C=C/C1CC(O)C(O)C(=O)C1CO (stereo not drawn) | > 100 µM | > 100 µM | > 100 | > 100 µM | > 100 | > 100 µM | > 100 µM | – | > 100 | > 100 | – | – | – | – | – | – | – | – | – | –
12 | Cn1c(=O)c2c(nc(C(=N)SCC(=O)O)n2C)n(C)c1=O | > 100 µM | > 100 µM | > 100 | > 100 µM | > 100 | > 100 µM | > 100 µM | > 100 | > 100 | > 100 | – | – | – | – | – | – | – | – | – | –
13 | N#CC(=Nc1ccccc1N(C(=O)c1ccccc1)C(=O)c1ccccc1)c1ccccc1 | > 100 µM | > 100 µM | – | > 100 µM | > 100 | > 100 µM | – | > 100 | > 100 | > 100 | – | – | – | – | – | – | – | – | – | –
14 | COc1cc2c(/C=N\N=C(N)N)c[nH]c2cc1C | – | 27.3 µM | – | > 100 µM | 43.4 | > 100 µM | 40 µM | – | > 100 | – | – | 13.2 µM | – | 32.7 µM | – | 33.2 µM | 18.5 | – | 40.2 µM | 15.4 µM
15 | COC(=O)C(=O)C(C(C)=O)C(=O)NCc1ccc(OC)c(OC)c1 (stereo not drawn) | > 100 µM | > 100 µM | – | > 100 µM | > 100 | > 100 µM | – | > 100 | > 100 | > 100 | – | – | – | – | – | – | – | – | – | –
16 | Nc1nc(-c2ccc(Cl)c([N+](=O)[O-])c2)cs1 | > 100 µM | > 100 µM | – | > 100 µM | > 100 | > 100 µM | – | > 100 | > 100 | 92.7 | – | – | – | – | – | – | – | – | – | –
17 | O=C1NCCS(=O)(=O)N[C@@H](CC2=CC=CCC2)C(=O)N2CCCC12 (stereo partly drawn) | > 100 µM | > 100 µM | – | > 100 µM | > 100 | > 100 µM | – | > 100 | > 100 | > 100 | – | – | – | – | – | – | – | – | – | –
